Test results reported in the supplement of paper PMC10627819.

Key:
[1] = test system: S. aureus DSM 20231; experiment: Bliss interaction score (quartile over a dose matrix) (fitness difference); higher = more antagonism (negative = synergy)
Method in brief: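 Values were capped at 1 after dividing OD595 at stationary-phase entry by the plate's robust no-drug mean. This ratio is fitness, and single-drug fitness was inferred from the combination data. The Bliss score is observed minus product-expected fitness, given as quartiles over technical, biological and donor/recipient replicates.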

[2] = test system: B. subtilis 168; experiment: fitness (endpoint OD595 vs no drug) (fraction); higher = more growth
Method in brief: (§1)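 Cultures at OD595 0.01 were dispensed into 384-well plates in TSB, LB Lennox or CY and incubated at 37 °C. Every 30 min for 14 h, OD595 was read and corrected by the first reading. Fitness is the optical density at entry into stationary phase relative to the robust mean of no-drug control wells, capped at 1.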

[3] = test system: S. aureus DSM 20231; experiment: as above
Method in brief: as §1

[4] = test system: S. aureus Newman; experiment: as above
Method in brief: as §1

[5] = first compound 0.375 µg/mL, partner 0.0156 µg/mL
[6] = first compound 0.375 µg/mL, partner 0.0312 µg/mL
[7] = first compound 0.375 µg/mL, partner 0.0625 µg/mL
[8] = first compound 0.75 µg/mL, partner 0.0156 µg/mL
[9] = first compound 0.75 µg/mL, partner 0.0312 µg/mL
[10] = first compound 0.75 µg/mL, partner 0.0625 µg/mL
[11] = first compound 1.5 µg/mL, partner 0.0156 µg/mL
[12] = first compound 1.5 µg/mL, partner 0.0312 µg/mL
[13] = first compound 1.5 µg/mL, partner 0.0625 µg/mL
[14] = first compound 0.375 µg/mL, partner 12.5 µg/mL
[15] = first compound 0.375 µg/mL, partner 25 µg/mL
[16] = first compound 0.375 µg/mL, partner 50 µg/mL
[17] = first compound 0.75 µg/mL, partner 12.5 µg/mL
[18] = first compound 0.75 µg/mL, partner 25 µg/mL
[19] = first compound 1.5 µg/mL, partner 12.5 µg/mL
[20] = first compound 1.5 µg/mL, partner 25 µg/mL
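Wherever Bliss interaction score (quartile over a dose matrix) is given: first quartile when negative (synergy) and third quartile when positive (antagonism).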

With `CCC[C@@H]1C[C@@H](C(=O)N[C@@H]([C@H]2O[C@H](SC)[C@H](O)[C@@H](O)[C@H]2O)[C@H](C)Cl)N(C)C1` [Clindamycin] + C[C@H]1C[C@@H]2[C@H]([C@@H](O)C[C@@]3(C)[C@H]2CC[C@]3(O)C(=O)CO)[C@@]2(C)C=CC(=O)C=C12 [Methylprednisolone] the Bliss interaction score [1] was -0.274.

Work on `CCC[C@@H]1C[C@@H](C(=O)N[C@@H]([C@H]2O[C@H](SC)[C@H](O)[C@@H](O)[C@H]2O)[C@H](C)Cl)N(C)C1` [Clindamycin] + Cc1c(Cl)cccc1Nc1ccccc1C(=O)O [Tolfenamic] yielded a Bliss interaction score [1] of -0.169.

Work on `CCC[C@@H]1C[C@@H](C(=O)N[C@@H]([C@H]2O[C@H](SC)[C@H](O)[C@@H](O)[C@H]2O)[C@H](C)Cl)N(C)C1` [Clindamycin] + Cc1ccc(C(C)C)c(O)c1 [Thymol] yielded a Bliss interaction score [1] of -0.271.

In the case of `CCC[C@@H]1C[C@@H](C(=O)N[C@@H]([C@H]2O[C@H](SC)[C@H](O)[C@@H](O)[C@H]2O)[C@H](C)Cl)N(C)C1` [Clindamycin] + Nc1ccc(O)c(C(=O)O)c1 [Mesalamine], the Bliss interaction score [1] is reported as -0.165.

With `CCC[C@@H]1C[C@@H](C(=O)N[C@@H]([C@H]2O[C@H](SC)[C@H](O)[C@@H](O)[C@H]2O)[C@H](C)Cl)N(C)C1` [Clindamycin] + O=C(O)Cc1cc(I)c(Oc2ccc(O)c(I)c2)c(I)c1 [Tiratricol] the Bliss interaction score [1] was 0.278.

With `CCN(CC)CCOc1ccc(C(=C(Cl)c2ccccc2)c2ccccc2)cc1` [Clomiphene] + CCC(C)C1C(=O)NC(=C)C(=O)NC(C(=O)NC(CSCC(C(=O)N1)NC(=O)/C(=C/C)/NC(=O)C(C(C)CC)N)C(=O)NC2C(SCC(NC(=O)CNC(=O)C3CCCN3C2=O)C(=O)NC(CCCCN)C(=O)NC4C(SCC(NC(=O)CNC(=O)C(NC(=O)C(NC(=O)C(NC(=O)CNC4=O)C)CC(C)C)CCSC)C(=O)NC(CC(=O)N)C(=O)NC(CCSC)C(=O)NC(CCCCN)C(=O)NC5C(SCC6C(=O)NC(C(=O)NC(CSC(C(C(=O)N6)NC(=O)C(NC5=O)C)C)C(=O)NC(CO)C(=O)NC(C(C)CC)C(=O)NC(CC7=CN=CN7)C(=O)NC(C(C)C)C(=O)NC(=C)C(=O)NC(CCCCN)C(=O)O)CC8=CN=CN8)C)C)C)CC(C)C [Nisin] the Bliss interaction score ([1]; main component drawn) was -0.384.

`CCN(CC)CCOc1ccc(C(=C(Cl)c2ccccc2)c2ccccc2)cc1` [Clomiphene] + CN[C@@H]1[C@H](O[C@H]2[C@H](O[C@H]3[C@H](O)[C@@H](O)[C@H](N=C(N)N)[C@@H](O)[C@@H]3N=C(N)N)O[C@@H](C)[C@]2(O)C=O)O[C@@H](CO)[C@H](O)[C@H]1O [Streptomycin] showed a Bliss interaction score [1] of 0.238.

`CCN(CC)CCOc1ccc(C(=C(Cl)c2ccccc2)c2ccccc2)cc1` [Clomiphene] + COc1cc(Cc2cnc(N)nc2N)cc(OC)c1OC [Trimethoprim] was tested, and the Bliss interaction score [1] was 0.216.

`CCN(CC)CCOc1ccc(C(=C(Cl)c2ccccc2)c2ccccc2)cc1` [Clomiphene] + Cn1nnc(-c2ccc(-c3ccc(N4C[C@H](CO)OC4=O)cc3F)cn2)n1 [Tedizolid] gave a Bliss interaction score [1] of 0.263.

With `CCN(CC)CCOc1ccc(C(=C(Cl)c2ccccc2)c2ccccc2)cc1` [Clomiphene] + N[C@@H]1CONC1=O [CycloserineD] the Bliss interaction score [1] was -0.175.

`CCN(CC)CCOc1ccc(C(=C(Cl)c2ccccc2)c2ccccc2)cc1` [Clomiphene] + O=C(O[C@@H]1Cc2c(O)cc(O)cc2O[C@@H]1c1cc(O)c(O)c(O)c1)c1cc(O)c(O)c(O)c1 [EGCG] gave a Bliss interaction score [1] of 0.241.

`N[C@@H]1CONC1=O` [Cycloserine D] + Cc1onc(-c2ccccc2)c1C(=O)N[C@@H]1C(=O)N2[C@@H]1SC(C)(C)[C@@H]2C(=O)O [Oxacillin] gave a fitness ([2]; first compound 0.125 µg/mL, partner 0.002 µg/mL) of 0.973, a fitness ([2]; first compound 0.125 µg/mL, partner 0.004 µg/mL) of 0.966 and a fitness ([2]; first compound 0.125 µg/mL, partner 0.0078 µg/mL, one replicate) of 0.99. The fitness ([2]; first compound 0.125 µg/mL, partner 0.008 µg/mL) was 0.936, the fitness ([2]; first compound 0.125 µg/mL, partner 0.0155 µg/mL, one replicate) was 0.909 and the fitness ([2]; first compound 0.125 µg/mL, partner 0.031 µg/mL, one replicate) was 0.873. The fitness ([2]; first compound 0.125 µg/mL, partner 0.075 µg/mL, one replicate) was 0.526, the fitness ([2]; first compound 0.125 µg/mL, partner 0.15 µg/mL, one replicate) was 0.0465 and the fitness ([2]; first compound 0.125 µg/mL, partner 0.3 µg/mL, one replicate) was 0.0536. The fitness ([2]; first compound 0.25 µg/mL, partner 0.002 µg/mL) was 0.926, the fitness ([2]; first compound 0.25 µg/mL, partner 0.004 µg/mL) was 0.887 and the fitness ([2]; first compound 0.25 µg/mL, partner 0.0078 µg/mL, one replicate) was 0.937. For the same compound, the fitness ([2]; first compound 0.25 µg/mL, partner 0.008 µg/mL) was 0.892, the fitness ([2]; first compound 0.25 µg/mL, partner 0.0155 µg/mL, one replicate) was 0.966 and the fitness ([2]; first compound 0.25 µg/mL, partner 0.031 µg/mL, one replicate) was 0.88. It also gave a fitness ([2]; first compound 0.25 µg/mL, partner 0.075 µg/mL, one replicate) of 0.596, a fitness ([2]; first compound 0.25 µg/mL, partner 0.15 µg/mL, one replicate) of 0.0158 and a fitness ([2]; first compound 0.25 µg/mL, partner 0.3 µg/mL, one replicate) of 0.0367. The fitness ([2]; first compound 0.5 µg/mL, partner 0.002 µg/mL) was 0.906, the fitness ([2]; first compound 0.5 µg/mL, partner 0.004 µg/mL) was 0.9 and the fitness ([2]; first compound 0.5 µg/mL, partner 0.0078 µg/mL, one replicate) was 0.973. For the same compound, the fitness ([2]; first compound 0.5 µg/mL, partner 0.008 µg/mL) was 0.907, the fitness ([2]; first compound 0.5 µg/mL, partner 0.0155 µg/mL, one replicate) was at least 1 and the fitness ([2]; first compound 0.5 µg/mL, partner 0.031 µg/mL, one replicate) was 0.973. It also gave a fitness ([2]; first compound 0.5 µg/mL, partner 0.075 µg/mL, one replicate) of 0.459, a fitness ([2]; first compound 0.5 µg/mL, partner 0.15 µg/mL, one replicate) of 0.0287 and a fitness ([2]; first compound 0.5 µg/mL, partner 0.3 µg/mL, one replicate) of 0.0208. The fitness [3, 5] was 0.878, the fitness [3, 6] was 0.67 and the fitness [3, 7] was 0.506. It also gave a fitness [3, 8] of 0.906, a fitness [3, 9] of 0.712 and a fitness [3, 10] of 0.499. It also gave a fitness [3, 11] of 0.931, a fitness [3, 12] of 0.656 and a fitness [3, 13] of 0.494. The fitness [4, 5] was 0.819, the fitness [4, 6] was 0.716 and the fitness [4, 7] was 0.611. It also gave a fitness [4, 8] of 0.779, a fitness [4, 9] of 0.663 and a fitness [4, 10] of 0.611. It also gave a fitness [4, 11] of 0.771, a fitness [4, 12] of 0.642 and a fitness [4, 13] of 0.579.

With `N[C@@H]1CONC1=O` [Cycloserine D] + O=C(O[C@@H]1Cc2c(O)cc(O)cc2O[C@@H]1c1cc(O)c(O)c(O)c1)c1cc(O)c(O)c(O)c1 [EGCG] the fitness ([2]; first compound 0.125 µg/mL, partner 6.25 µg/mL) was 0.934, the fitness ([2]; first compound 0.125 µg/mL, partner 12.5 µg/mL) was 0.567 and the fitness ([2]; first compound 0.25 µg/mL, partner 6.25 µg/mL) was 0.898. For the same compound, the fitness ([2]; first compound 0.25 µg/mL, partner 25 µg/mL) was 0.289, the fitness ([2]; first compound 0.5 µg/mL, partner 6.25 µg/mL) was 0.938 and the fitness ([2]; first compound 0.5 µg/mL, partner 12.5 µg/mL) was 0.443. The fitness [3, 14] was 0.785, the fitness [3, 15] was 0.784 and the fitness [3, 16] was 0.776. For the same compound, the fitness [3, 17] was 0.73, the fitness [3, 18] was 0.772 and the fitness [3, 19] was 0.798. For the same compound, the fitness [3, 20] was 0.663, the fitness [4, 14] was 0.77 and the fitness [4, 15] was 0.765. The fitness [4, 16] was 0.691, the fitness [4, 17] was 0.805 and the fitness [4, 18] was 0.821. It also gave a fitness ([4]; first compound 0.75 µg/mL, partner 50 µg/mL) of 0.697, a fitness [4, 19] of 0.851 and a fitness [4, 20] of 0.779. It also gave a fitness ([4]; first compound 1.5 µg/mL, partner 50 µg/mL) of 0.706.

`N[C@@H]1CONC1=O` [CycloserineD] + Cc1c(Cl)cccc1Nc1ccccc1C(=O)O [Tolfenamic] was tested, and the Bliss interaction score [1] was -0.218.

For `N[C@@H]1CONC1=O` [CycloserineD] + O=C(O)c1cc(-c2ccc(F)cc2F)ccc1O [Diflunisal], the Bliss interaction score [1] was -0.151.

Work on `O=C(O[C@@H]1Cc2c(O)cc(O)cc2O[C@@H]1c1cc(O)c(O)c(O)c1)c1cc(O)c(O)c(O)c1` [EGCG] + CN1CCC[C@H]1c1cccnc1 [Nicotine] yielded a Bliss interaction score [1] of -0.157.
